Molecules are shown by their SMILES.

`Cc1oc(-c2ccc(F)cc2)cc1C(=O)N(C)c1cccc(CSCC(=O)O)c1` [Example 1(1), [(3{[5-(4-Fluorophenyl)-2-methyl-3-furoyl](methyl)amino}benzyl)thio]acetic acid] came in with a melting point of 155 to 156 °C.
Molecule `CCCN(C(=O)c1cc(-c2ccc(F)cc2)oc1C)c1cccc(CSCC(=O)O)c1` [Example 1(2), [(3{[5-(4-Fluorophenyl)-2-methyl-3-furoyl](propyl)amino}benzyl)thio]acetic acid] registered a melting point of 140 to 141 °C.
Next, `O=C(O)CSCc1cccc(NC(=O)c2ccc(-c3ccc(Cl)cc3)o2)c1` [Example 2(3), [(3-{[5-(4-Chlorophenyl)-2-furoyl]amino}benzyl]thio]acetic acid]: 173 to 174 °C.
Next, `CCCCc1oc(-c2ccc(C(F)(F)F)cc2)cc1CCC(=O)Nc1cccc(CSCC(=O)O)c1` [Example 2(5), ({3-[(3-{2-Butyl-5-[4-(trifluoromethyl)phenyl]-3-furyl}propionyl)amino)benzyl}thio) acetic acid]: 137 to 138 °C; `Cc1oc(-c2ccc(C(F)(F)F)cc2)cc1CC(=O)Nc1cccc(CSCC(=O)O)c1` [Example 4(1), ({3-[({2-Methyl-5-[4-(trifluoromethyl)phenyl]-3-furyl}acetyl)amino]benzyl}thio)acetic acid]: 173 to 174 °C; `Cc1oc(-c2ccc(OC(F)(F)F)cc2)cc1C(=O)Nc1cccc(CSCC(=O)O)c1` [Example 4(2)]: 200 to 202 °C.
`O=C(O)CSCc1cccc(OCc2cc(-c3ccccc3)oc2C(F)(F)F)c1` [Example 5(4), [(3-{[5-Phenyl-2-(trifluoromethyl)-3-furyl]methoxy}benzyl)thio]acetic acid] yielded a melting point of 84 to 85 °C.
Next, `Cc1cc(OCc2cc(-c3ccc(C(F)(F)F)cc3)oc2C)ccc1CC(=O)O` [Example 6(3), [2-Methyl-4-({2-methyl-5-[4-(trifluoromethyl)phenyl]-3-furyl}methoxy)phenyl]acetic acid]: 147 to 149 °C; `Cc1oc(-c2ccc(C(F)(F)F)cc2)cc1COc1ccc(OC(C)(C)C(=O)O)cc1` [Example 6(5), 2-Methyl-2-[4-({2-methyl-5-[4-(trifluoromethyl)phenyl]-3-furyl}methoxy)phenoxy]propionic acid]: 134 to 135 °C; `Cc1oc(-c2ccc(C(F)(F)F)cc2)cc1CCCOc1ccc(CC(=O)O)cc1` [Example 6(8), [4-(3-{2-Methyl-5-[4-(trifluoromethyl)phenyl]-3-furyl}propoxy)phenyl]acetic acid]: 113 to 114 °C.
For `Cc1oc(-c2ccc(C(F)(F)F)cc2)cc1COc1ccc(CC(=O)O)cc1` [Example 6(9), [4-({2-Methyl-5-[4-(trifluoromethyl)phenyl]-3-furyl}methoxy)phenyl]acetic acid] the value was 147 to 149 °C; for `COc1cc(OCc2cc(-c3ccc(C(F)(F)F)cc3)oc2C)ccc1CC(=O)O` [Example 6(10), [2-Methoxy-4-({2-methyl-5-[4-(trifluoromethyl)phenyl]-3-furyl}methoxy)phenyl]acetic acid], 168 to 169 °C; for `Cc1oc(-c2ccc(F)cc2)cc1COc1cccc(COCC(=O)O)c1` [Example 6(11), [(3-{[5-(4-Fluorophenyl)-2-methyl-3-furyl]methoxy}benzyl)oxy]acetic acid], 109 to 110 °C.
The molecule `Cc1oc(-c2ccc(C(F)(F)F)cc2)cc1CCOc1ccc(CC(=O)O)cc1` [Example 6(13), [4-(2-{2-Methyl-5-[4-(trifluoromethyl)phenyl]-3-furyl}ethoxy)phenyl]acetic acid] displayed a melting point of 115 to 116 °C.
For `CCCCc1oc(-c2ccc(C(F)(F)F)cc2)cc1CCCOc1cccc(CC(=O)O)c1` [Example 6(15), [3-(3-{2-Butyl-5-[4-(trifluoromethyl)phenyl]-3-furyl}propoxy)phenyl]acetic acid] the value was 80 to 82 °C; for `CCCCc1oc(-c2ccc(C(F)(F)F)cc2)cc1CCCOc1ccc(CC(=O)O)cc1` [Example 6(16), [4-(3-{2-Butyl-5-[4-(trifluoromethyl)phenyl]-3-furyl}propoxy)phenyl]acetic acid], 96 to 97 °C; for `Cc1nc(SCc2cc(-c3ccc(F)cc3)oc2C)sc1CC(=O)O` [Example 6(18), [2-({[5-(4-Fluorophenyl)-2-methyl-3-furyl]methyl}thio)-4-methyl-1,3-thiazol-5-yl]acetic acid], 202 to 205 °C.
For the molecule `Cc1oc(-c2ccc(F)cc2)cc1COc1cccc(CCCC(=O)O)c1` [Example 6(19), 4-(3-{[5-(4-Fluorophenyl)-2-methyl-3-furyl]methoxy}phenyl)butanoic acid], the melting point lay in the range of 98 to 99 °C.
Next, `Cc1cc(OCCc2cc(-c3ccc(C(F)(F)F)cc3)oc2C)ccc1CCC(=O)O` [Example 6(22), 3-[2-Methyl-4-(2-{2-methyl-5-[4-(trifluoromethyl)phenyl]-3-furyl}ethoxy)phenyl]propionic acid]: 118 to 120 °C; `Cc1oc(-c2ccc(C(F)(F)F)cc2)cc1CCOc1ccc(OCC(=O)O)cc1` [Example 6(23), [4-(2-{2-Methyl-5-[4-(trifluoromethyl)phenyl]-3-furyl}ethoxy)phenoxy]acetic acid]: 132 to 133 °C; `Cc1oc(-c2ccc(C(F)(F)F)cc2)cc1CCCOc1ccc(OCC(=O)O)cc1` [Example 6(25), [4-(3-{2-Methyl-5-[4-(trifluoromethyl)phenyl]-3-furyl}propoxy)phenoxy]acetic acid]: 134 to 135 °C.
Consider `CCc1oc(-c2ccc(C(F)(F)F)cc2)cc1CCCOc1ccc(CC(=O)O)cc1` [Example 6(27), [4-(3-{2-Ethyl-5-[4-(trifluoromethyl)phenyl]-3-furyl}propoxy)phenyl]acetic acid], for which the melting point is 121 to 122 °C.
With `Cc1oc(-c2ccc(C(F)(F)F)cc2)cc1CCCOc1ccc(OC(C)(C)C(=O)O)cc1` [Example 6(31), 2-Methyl-2-[4-(3-{2-methyl-5-[4-(trifluoromethyl)phenyl]-3-furyl}propoxy)phenoxy]propionic acid], the melting point fell in the range of 123 to 124 °C.
Next, `Cc1oc(-c2ccc(C(F)(F)F)cc2)cc1COc1ccc2cc(CCC(=O)O)ccc2c1` [Example 6(34), 3-[6-({2-Methyl-5-[4-(trifluoromethyl)phenyl]-3-furyl}methoxy)-2-naphthyl]propionic acid]: 191 to 192 °C; `Cc1nc(SCCc2cc(-c3ccc(F)cc3)oc2C)sc1CC(=O)O` [Example 6(38), [2-({2-[5-(4-Fluorophenyl)-2-methyl-3-furyl]ethyl}thio)-4-methyl-1,3-thiazol-5-yl]acetic acid]: 124 to 126 °C; `CCc1oc(-c2ccc(C(F)(F)F)cc2)cc1CCCOc1ccc(OC)c(CC(=O)O)c1` [Example 6(39), [5-(3-{2-Ethyl-5-[4-(trifluoromethyl)phenyl]-3-furyl}propoxy)-2-methoxyphenyl]acetic acid]: 138 to 139 °C.
For `CCc1oc(-c2ccc(C(F)(F)F)cc2)cc1CCCOc1cc(CC(=O)O)ccc1OC` [Example 6(40), [3-(3-{2-Ethyl-5-[4-(trifluoromethyl)phenyl]-3-furyl}propoxy)-4-methoxyphenyl]acetic acid] the value was 137 to 138 °C.
For `CCc1oc(-c2ccc(C(F)(F)F)cc2)cc1CCCOc1ccc(C(C)(C)C(=O)O)cc1` [Example 6(44), 2-[4-(3-{2-Ethyl-5-[4-(trifluoromethyl)phenyl]-3-furyl}propoxy)phenyl]-2-methylpropionic acid] the value was 102 to 103 °C; for `CCc1oc(-c2ccc(C(F)(F)F)cc2)cc1CCCOc1cccc(C(C)(C)C(=O)O)c1` [Example 6(45), 2-[3-(3-{2-Ethyl-5-[4-(trifluoromethyl)phenyl]-3-furyl}propoxy)phenyl]-2-methylpropionic acid], 94 to 95 °C; for `CCc1oc(-c2ccc(C(F)(F)F)cc2)cc1CCCOc1cc(CC(=O)O)ccc1F` [Example 6(46), [3-(3-{2-Ethyl-5-[4-(trifluoromethyl)phenyl]-3-furyl}propoxy)-4-fluorophenyl]acetic acid], 91 to 93 °C.
Molecule `CCc1oc(-c2ccc(C(F)(F)F)cc2)cc1CCCOc1ccc(F)c(CC(=O)O)c1` [Example 6(47), [5-(3-{2-Ethyl-5-[4-(trifluoromethyl)phenyl]-3-furyl}propoxy)-2-fluorophenyl]acetic acid] returned a melting point of 128 to 129 °C.
Next, `CCc1oc(-c2ccc(C(F)(F)F)cc2)cc1CCCOc1cccc(CC(=O)O)c1C` [Example 6(50), [3-(3-{2-Ethyl-5-[4-(trifluoromethyl)phenyl]-3-furyl}propoxy)-2-methylphenyl]acetic acid]: 109 to 110 °C; `COc1cccc(-c2cc(CSc3nc(C)c(CC(=O)O)s3)c(C)o2)c1` [Example 6(53), [2-({[5-(3-Methoxyphenyl)-2-methyl-3-furyl]methyl}thio)-4-methyl-1,3-thiazol-5-yl]acetic acid]: 174 to 176 °C; `Cc1oc(-c2cccc(C(F)(F)F)c2)cc1COc1cccc(CSC(C)(C)C(=O)O)c1` [Example 6(59), 2-Methyl-2-{[3-({2-methyl-5-[3-(trifluoromethyl)phenyl]-3-furyl}methoxy)benzyl]thio}propionic acid]: 81 to 82 °C.
For `COc1cccc(-c2cc(COc3ccc(OC(C)(C)C(=O)O)cc3)c(C)o2)c1` [Example 6(60), 2-(4-{[5-(3-Methoxyphenyl)-2-methyl-3-furyl]methoxy}phenoxy)-2-methylpropionic acid] the value was 111 to 112 °C.
For `Cc1oc(-c2cccc(C(F)(F)F)c2)cc1COc1ccc(OC(C)(C)C(=O)O)cc1` [Example 6(63), 2-Methyl-2-[4-({2-methyl-5-[3-(trifluoromethyl)phenyl]-3-furyl}methoxy)phenoxy]propionic acid] the value was 83 to 84 °C.
